Laboratory results from US20230085803A1, “METHOD FOR SEARCHING AND SCREENING FOR TARGET OF ANTI-CANCER AGENT USING NON-HUMAN ANIMAL MODEL HAVING NOG ESTABLISHED CANCER CELL LINE TRANSPLANTED THEREIN” (CHUGAI SEIYAKU KABUSHIKI KAISHA, priority 2009, published 2023).

Legend:
[1] = test system: Well-differentiated adenocarcinoma (NOG-established colon cancer cell line); assay: Histopathology of tumor masses after 5-FU administration, well-differentiated adenocarcinoma transplanted into NOG mice; type: in vivo, human; conditions: NOG mice transplanted with an NOG-established colon cancer cell line, after administration of 5-fluorouracil; legend does not name the line
Description: (§1) The present inventors used NOG-established cancer cell lines that had been established so as to meet the criterion that human colon cancer, stomach cancer, lung cancer, breast cancer, or pancreatic cancer can be transplanted or passaged over three or more generations in NOG mice (Fujii E. et al., Pathol Int. 2008; 58: 559-567). In this Example, NOG-established cancer cell lines were subcutaneously transplanted into NOG mice. 28 days after transplantation, the mice were dissected, and the implants were excised and fixed with 4% paraformaldehyde at 4° C. for 16 to 24 hours. Then, the fixed samples were embedded and sliced into thin section samples by the AMeX method (Fujii E. et al., Pathol Int. 2008; 58: 559-567). The tissues were stained by HE and immunohistochemistry (IHC). Anti-E-cadherin antibody (DakoCytomation) and anti-fibronectin antibody (DakoCytomation) were used as a primary antibody. The visualization was carried out by LSAB method using DAB (DAB Map kit, Roche Diagnostics).
(§2) Each NOG-established cancer cell line whose tissue morphology was (1) well-differentiated adenocarcinoma, (2) moderately-differentiated adenocarcinoma, or (3) poorly-differentiated adenocarcinoma in the donors' human colon cancer were subcutaneously transplanted into NOG mice. […]

[2] = test system: moderately-differentiated adenocarcinoma (NOG-established colon cancer cell line); assay: Histopathology of tumor masses after 5-FU administration, moderately-differentiated adenocarcinoma transplanted into NOG mice; type: in vivo, human; conditions: NOG mice transplanted with an NOG-established colon cancer cell line, after administration of 5-fluorouracil; legend does not name the line
Description: as §1, §2

## O=c1[nH]cc(F)c(=O)[nH]1 [5-FU, 5-fluorouracil]
[1]
  poorly-differentiated glandular ducts (histopathology, FIG. 13): increase
[2]
  budding structures (histopathology, FIG. 13): decrease
